# Results as given in US7189858B2, “N-phenyl substituted carbamoyloxyalkyl-azolium derivatives” (Basilea Pharmaceutica AG, priority 1999, dated 2007).
# Read-outs that look alike come from different tables or passages of the source.
# How the values were obtained:
# [1] = rat
# Solubility (Table 1) = conditions: solvent a = distilled water
# A. fumigatus CF1003 = assay: Rat systemic mycosis, A. fumigatus CF1003; assay type: in vivo; conditions: for ED50: Aspergillus fumigatus, CF1003, 336 h, read-out: Rat systemic mycosis ED50 on day 14, A. fumigatus CF1003
# From the text: (§1) Male Fisher rats, strain F344/DuCrj, were employed for experimental infection models such as systemic candidiasis, systemic aspergillosis and pulmonary aspergillosis model. Immunocompetent 4 weeks old rats were used for systemic candidiasis or systemic aspergillosis which occurred after infection with Candida albicans conidia of 5×10^6/rat or with Aspergillus fumigatus conidia of 6×10^5/rat via tail vein. Otherwise for pulmonary aspergillosis model, rats had been immunosuppressed with cortisone acetate treatments prior to infection with 2×10^5/rat intratrachially. Treatments were given twice on the first day and once daily on following 4 days both for systemic and pulmonary aspergillosis (Ib.i.+4q.d.), for systemic candidiasis rats were treated at 0, 4, 24, and 48 h after infection (Ib.i.d.+2q.d.). Effective dose 50% (ED50) values were determined on day 14 after infection.
# [2] = assay type: in vitro ADME; conditions: human
# Candida albicans = assay: Rat systemic candidiasis model (Fluconazole resistance); assay type: in vivo; conditions: day 14 after infection
# From the text: as §1
# C. tropicalis CY5042 = assay: Rat systemic mycosis, C. tropicalis CY5042; assay type: in vivo; conditions: for ED50: Candida tropicalis, CY5042, 336 h, read-out: Rat systemic mycosis ED50 on day 14, C. tropicalis CY5042
# C. parapsilosis KULM219C = assay: Rat systemic mycosis, C. parapsilosis KULM219C; assay type: in vivo; conditions: for ED50: Lodderomyces parapsilosis, KULM219C, 336 h, read-out: Rat systemic mycosis ED50 on day 14, C. parapsilosis KULM219C
# [3] = tested on: FCZ^R - C. albicans UTHS93-2067; assay: Rat systemic mycosis, FCZ^R C. albicans UTHS93-2067; assay type: in vivo; conditions: for ED50: Candida albicans, 336 h, read-out: Rat systemic mycosis ED50 on day 14, FCZ^R - C. albicans UTHS93-2067
# From the text: as §1
# C. albicans CY3003 = assay: Rat systemic mycosis, C. albicans CY3003; assay type: in vivo; conditions: for ED50: Candida albicans, CY3003, 336 h, read-out: Rat systemic mycosis ED50 on day 14, C. albicans CY3003
# From the text: as §1
# C. albicans CY1002 = assay: Rat systemic mycosis, C. albicans CY1002; assay type: in vivo; conditions: for ED50: Candida albicans, CY1002, 336 h, read-out: Rat systemic mycosis ED50 on day 14, C. albicans CY1002
# From the text: as §1
# Aspergillus fumigatus = assay: Rat systemic aspergillosis model; assay type: in vivo; conditions: day 14 after infection
# From the text: as §1
compound,measurement,setting,value
"CC(=O)OCc1ccccc1N(C)C(=O)OC[n+]1cnn(C[C@](O)(c2cc(F)ccc2F)[C@@H](C)c2nc(-c3ccc(C#N)cc3)cs2)c1.[Cl-] [Example 5, [[N-methyl-N-2-(acetoxymethyl)phenyl]carbamoyloxy]methyl-1-[(2R,3R)-2-(2,5-difluorophenyl)-2-hydroxy-3-[4-(4-cyanophenyl)thiazol-2-yl]butyl]-1H-[1,2,4]triazol-4-ium chloride]","Conversion (half-life) to (2R,3R)-3-[4-(4-cyanophenyl)thiazol-2-yl)]-2-(2,5-difluorophenyl)-1-(1H-1,2,4-triazol-1-yl)-butan-2-ol (u) in plasma",[1],<2 min in rat plasma
"CC(C)NCc1ccccc1N(C)C(=O)OC(C)[n+]1cnn(C[C@](O)(c2cc(F)ccc2F)[C@@H](C)c2nc(-c3ccc(C#N)cc3)cs2)c1.Cl.[Cl-] (stereo partly drawn) [Example 6, 1-[[N-methyl-N-2-(isopropylaminomethyl)phenyl]carbamoyloxy]ethyl-1-[(2R,3R)-2-(2,5-difluorophenyl)-2-hydroxy-3-[4-(4-cyanophenyl)thiazol-2-yl]butyl]-1H-[1,2,4]triazol-4-ium chloride hydrochloride]",Solubility,Solubility (Table 1),>10000 µg/mL
"CNCC(=O)OCc1cccnc1N(C)C(=O)OC(C)[n+]1cnn(C[C@](O)(c2cc(F)ccc2F)[C@@H](C)c2nc(-c3ccc(C#N)cc3)cs2)c1.Cl.[Cl-] (stereo partly drawn) [Example 7, 1-[[N-methyl-N-3-[(methylamino)acetoxymethyl]pyridin-2-yl]carbamoyloxy)ethyl-1-[(2R,3R)-2-(2,5-difluorophenyl)-2-hydroxy-3-[4-(4-cyanophenyl)thiazol-2-yl]butyl]-1H-[1,2,4]triazol-4-ium chloride hydrochloride]","Rat systemic mycosis ED50 on day 14, A. fumigatus CF1003",A. fumigatus CF1003; I.V.,11 µmol/kg
same,"Rat systemic mycosis ED50 on day 14, A. fumigatus CF1003",A. fumigatus CF1003; PO.,9 µmol/kg
same,"Conversion (half-life) to (2R,3R)-3-[4-(4-cyanophenyl)thiazol-2-yl)]-2-(2,5-difluorophenyl)-1-(1H-1,2,4-triazol-1-yl)-butan-2-ol (u) in plasma",[2],<2 min in human plasma
same,"ED50, Systemic Fluconazole resistance candidiasis",Candida albicans; i.v.,13.3 µmol/kg
same,"ED50, Systemic Fluconazole resistance candidiasis",Candida albicans; p.o.,14.1 µmol/kg
same,"Rat systemic mycosis ED50 on day 14, C. tropicalis CY5042",C. tropicalis CY5042; I.V.,1 µmol/kg
same,"Rat systemic mycosis ED50 on day 14, C. tropicalis CY5042",C. tropicalis CY5042; PO.,1 µmol/kg
same,"Rat systemic mycosis ED50 on day 14, C. parapsilosis KULM219C",C. parapsilosis KULM219C; I.V.,7.6 µmol/kg
same,"Rat systemic mycosis ED50 on day 14, C. parapsilosis KULM219C",C. parapsilosis KULM219C; PO.,6.5 µmol/kg
same,"Rat systemic mycosis ED50 on day 14, FCZ^R - C. albicans UTHS93-2067",[3]; I.V.,2.8 µmol/kg
same,"Rat systemic mycosis ED50 on day 14, FCZ^R - C. albicans UTHS93-2067",[3]; PO.,7 µmol/kg
same,"Rat systemic mycosis ED50 on day 14, C. albicans CY3003",C. albicans CY3003; I.V.,1.6 µmol/kg
same,"Rat systemic mycosis ED50 on day 14, C. albicans CY3003",C. albicans CY3003; PO.,2.5 µmol/kg
same,"Rat systemic mycosis ED50 on day 14, C. albicans CY1002",C. albicans CY1002; I.V.,4 µmol/kg
same,"Rat systemic mycosis ED50 on day 14, C. albicans CY1002",C. albicans CY1002; PO.,4 µmol/kg
same,"ED50, Systemic aspergillosis",Aspergillus fumigatus; i.v.,13.5 µmol/kg
same,"ED50, Systemic aspergillosis",Aspergillus fumigatus; p.o.,8.8 µmol/kg
"CNCC(=O)OCc1cc(F)c(F)cc1N(C)C(=O)OC(C)[n+]1cnn(C[C@](O)(c2cc(F)ccc2F)[C@@H](C)c2nc(-c3ccc(C#N)cc3)cs2)c1.Cl.[Cl-] (stereo partly drawn) [Example 7.3., 1-[[N-methyl-N-2-(methylamino)acetoxymethyl-4,5-difluorophenyl]carbamoyloxy]ethyl-1-[(2R,3R)-2-(2,5-difluorophenyl)-2-hydroxy-3-[4-(4-cyanophenyl)thiazol-2-yl]butyl]-1H-[1,2,4]triazol-4-ium chloride hydrochloride]","Conversion (half-life) to (2R,3R)-3-[4-(4-cyanophenyl)thiazol-2-yl)]-2-(2,5-difluorophenyl)-1-(1H-1,2,4-triazol-1-yl)-butan-2-ol (u) in plasma",[2],6 min in human plasma
"CNCC(=O)OCc1cc(F)ccc1N(C)C(=O)OC(C)[n+]1cnn(C[C@](O)(c2cc(F)ccc2F)[C@@H](C)c2nc(-c3ccc(C#N)cc3)cs2)c1.Cl.[I-] (stereo partly drawn) [Example 7.4., 1-[[N-methyl-N-2-(methylamino)acetoxymethyl-4-fluoro-phenyl]carbamoyloxy]ethyl-1-[(2R,3R)-2-(2,5-difluorophenyl)-2-hydroxy-3-[4-(4-cyanophenyl)thiazol-2-yl]butyl]-1H-[1,2,4]triazol-4-ium iodide hydrochloride]","Conversion (half-life) to (2R,3R)-3-[4-(4-cyanophenyl)thiazol-2-yl)]-2-(2,5-difluorophenyl)-1-(1H-1,2,4-triazol-1-yl)-butan-2-ol (u) in plasma",[2],2 min in human plasma
"CNCC(=O)OCc1ccc(Cl)cc1N(C)C(=O)OC(C)[n+]1cnn(C[C@](O)(c2cc(F)ccc2F)[C@@H](C)c2nc(-c3ccc(C#N)cc3)cs2)c1.Cl.[I-] (stereo partly drawn) [Example 7.10., 1-[[N-methyl-N-2-(methylamino)acetoxymethyl-5-chloro-phenyl]carbamoyloxy]ethyl-1-[(2R,3R)-2-(2,5-difluorophenyl)-2-hydroxy-3-[4-(4-cyanophenyl)thiazol-2-yl]butyl]-1H-[1,2,4]triazol-4-ium iodide hydrochloride]","Conversion (half-life) to (2R,3R)-3-[4-(4-cyanophenyl)thiazol-2-yl)]-2-(2,5-difluorophenyl)-1-(1H-1,2,4-triazol-1-yl)-butan-2-ol (u) in plasma",[2],3 min in human plasma
"CNCC(=O)OCc1c(F)cccc1N(C)C(=O)OC(C)[n+]1cnn(C[C@](O)(c2cc(F)ccc2F)[C@@H](C)c2nc(-c3ccc(C#N)cc3)cs2)c1.Cl.[Cl-] (stereo partly drawn) [Example 7.13., 1-[[N-methyl-N-2-(methylamino)acetoxymethyl-3-fluoro-phenyl]carbamoyloxy]ethyl-1-[(2R,3R)-2-(2,5-difluorophenyl)-2-hydroxy-3-[4-(4-cyanophenyl)thiazol-2-yl]butyl]-1H-[1,2,4]triazol-4-ium chloride hydrochloride]","Conversion (half-life) to (2R,3R)-3-[4-(4-cyanophenyl)thiazol-2-yl)]-2-(2,5-difluorophenyl)-1-(1H-1,2,4-triazol-1-yl)-butan-2-ol (u) in plasma",[2],2 min in human plasma
"OC(Cn1cncn1)(Cn1cncn1)c1ccc(F)cc1F [Fluconazole, reference compound]",ED50,A. fumigatus CF1003; PO.,94 µmol/kg
same,ED50,"Candida albicans; Candida albicans, po, 336 h, p.o.",21.8 µmol/kg
same,ED50,C. tropicalis CY5042; PO.,2 µmol/kg
same,ED50,C. parapsilosis KULM219C; PO.,17 µmol/kg
same,ED50,[3]; PO.,8.1 µmol/kg
same,ED50,C. albicans CY3003; PO.,1 µmol/kg
same,ED50,C. albicans CY1002; PO.,1.9 µmol/kg
"CCC(C)n1ncn(-c2ccc(N3CCN(c4ccc(OCC5COC(Cn6cncn6)(c6ccc(Cl)cc6Cl)O5)cc4)CC3)cc2)c1=O (stereo not shown) [Itraconazole, 4-[4-[4-[4-[[2-(2,4-Dichlorophenyl)-2-(1H-1,2,4-triazol-1-ylmethyl)-1,3-dioxolan-4-yl]methoxy]phenyl]-1-piperazinyl]phenyl]-2,4-dihydro-2-(1-methylpropyl)-3H-[1,2,4]triazol-3-one, reference compound]",ED50,A. fumigatus CF1003; PO.,8.9 µmol/kg
same,ED50,C. tropicalis CY5042; PO.,2 µmol/kg
same,ED50,C. parapsilosis KULM219C; PO.,20 µmol/kg
same,ED50,[3]; PO.,4.2 µmol/kg
same,ED50,C. albicans CY3003; PO.,2.3 µmol/kg
same,ED50,C. albicans CY1002; PO.,4.7 µmol/kg
same,ED50,"Aspergillus fumigatus; Aspergillus fumigatus, po, 336 h, p.o.",4.9 µmol/kg
